Measured values from the NIST ThermoML archive (doi:10.1016/j.jct.2012.01.008).
Numbers after ± are expanded uncertainties.

Experiment: xn = mol fraction of the nth substance listed
Conditions: Liquid, Vibrating tube method

CCC[N+]1(C)CCCCC1.O=S(=O)([N-]S(=O)(=O)C(F)(F)F)C(F)(F)F + COc1ccccc1
mass density [kg/m3]
Conditions | 100 kPa | 10000 kPa | 15000 kPa | 20000 kPa | 25000 kPa | 30000 kPa | 35000 kPa | 40000 kPa | 45000 kPa | 50000 kPa
298.15 K, x2 = 0.1015 | 1393.9 ± 0.6 | 1400.6 ± 0.7 | 1403.7 ± 0.8 | 1406.9 ± 0.9 | 1409.8 ± 1 | 1412.7 ± 1.1 | 1415.3 ± 1.2 | 1418.1 ± 1.2 | 1420.9 ± 1.3 | 1423.5 ± 1.4
298.15 K, x2 = 0.201 | 1376.9 ± 0.6 | 1383.6 ± 0.7 | 1386.7 ± 0.8 | 1389.9 ± 0.9 | 1392.8 ± 1 | 1395.6 ± 1 | 1398.2 ± 1.1 | 1401 ± 1.2 | 1403.8 ± 1.3 | 1406.4 ± 1.4
298.15 K, x2 = 0.3001 | 1356.9 ± 0.5 | 1363.7 ± 0.7 | 1366.6 ± 0.8 | 1369.8 ± 0.8 | 1372.7 ± 0.9 | 1375.6 ± 1 | 1378.4 ± 1.1 | 1381.2 ± 1.2 | 1383.9 ± 1.2 | 1386.5 ± 1.3
298.15 K, x2 = 0.4102 | 1330.3 ± 0.5 | 1337.1 ± 0.7 | 1340.2 ± 0.7 | 1343.3 ± 0.8 | 1346.2 ± 0.9 | 1349.1 ± 0.9 | 1351.9 ± 1 | 1354.7 ± 1.1 | 1357.6 ± 1.2 | 1360.2 ± 1.2
298.15 K, x2 = 0.5003 | 1304.5 ± 0.5 | 1311.4 ± 0.6 | 1314.4 ± 0.7 | 1317.5 ± 0.8 | 1320.4 ± 0.8 | 1323.3 ± 0.9 | 1326.2 ± 1 | 1329.1 ± 1 | 1331.9 ± 1.1 | 1334.5 ± 1.2
298.15 K, x2 = 0.6003 | 1269.5 ± 0.5 | 1276.3 ± 0.6 | 1279.4 ± 0.6 | 1282.6 ± 0.7 | 1285.5 ± 0.8 | 1288.4 ± 0.8 | 1291.3 ± 0.9 | 1294 ± 0.9 | 1296.7 ± 1 | 1299.3 ± 1.1
298.15 K, x2 = 0.7003 | 1225.7 ± 0.4 | 1232.4 ± 0.5 | 1235.5 ± 0.6 | 1238.6 ± 0.6 | 1241.5 ± 0.7 | 1244.4 ± 0.7 | 1247.3 ± 0.8 | 1250.1 ± 0.8 | 1252.8 ± 0.9 | 1255.3 ± 0.9
298.15 K, x2 = 0.8 | 1169.1 ± 0.4 | 1175.8 ± 0.5 | 1178.9 ± 0.5 | 1182 ± 0.5 | 1184.8 ± 0.6 | 1187.7 ± 0.6 | 1190.6 ± 0.7 | 1193.3 ± 0.7 | 1196.1 ± 0.7 | 1198.6 ± 0.8
298.15 K, x2 = 0.9 | 1093.1 ± 0.4 | 1099.7 ± 0.4 | 1102.6 ± 0.4 | 1105.7 ± 0.5 | 1108.4 ± 0.5 | 1111.3 ± 0.5 | 1114.1 ± 0.5 | 1117 ± 0.5 | 1119.8 ± 0.6 | 1122.2 ± 0.6
318.15 K, x2 = 0.1015 | 1377.3 ± 0.6 | 1384.1 ± 0.7 | 1387.6 ± 0.8 | 1390.6 ± 0.9 | 1393.7 ± 1 | 1396.8 ± 1 | 1399.9 ± 1.1 | 1402.8 ± 1.2 | 1405.7 ± 1.3 | 1408.4 ± 1.4
318.15 K, x2 = 0.201 | 1360 ± 0.5 | 1366.8 ± 0.7 | 1370.3 ± 0.8 | 1373.3 ± 0.8 | 1376.4 ± 0.9 | 1379.5 ± 1 | 1382.6 ± 1.1 | 1385.4 ± 1.2 | 1388.3 ± 1.2 | 1391 ± 1.3
318.15 K, x2 = 0.3001 | 1339.7 ± 0.5 | 1346.6 ± 0.7 | 1350 ± 0.7 | 1353 ± 0.8 | 1356.1 ± 0.9 | 1359.2 ± 1 | 1362.3 ± 1 | 1365.2 ± 1.1 | 1368.1 ± 1.2 | 1370.8 ± 1.3
318.15 K, x2 = 0.4102 | 1312.9 ± 0.5 | 1319.9 ± 0.6 | 1323.3 ± 0.7 | 1326.4 ± 0.8 | 1329.6 ± 0.8 | 1332.7 ± 0.9 | 1335.9 ± 1 | 1338.8 ± 1 | 1341.7 ± 1.1 | 1344.5 ± 1.2
318.15 K, x2 = 0.5003 | 1286.7 ± 0.5 | 1293.8 ± 0.6 | 1297.3 ± 0.7 | 1300.4 ± 0.7 | 1303.6 ± 0.8 | 1306.7 ± 0.9 | 1309.9 ± 0.9 | 1312.8 ± 1 | 1315.7 ± 1.1 | 1318.5 ± 1.1
318.15 K, x2 = 0.6003 | 1251.6 ± 0.5 | 1258.8 ± 0.6 | 1262.2 ± 0.6 | 1265.4 ± 0.7 | 1268.7 ± 0.7 | 1271.8 ± 0.8 | 1275 ± 0.8 | 1277.9 ± 0.9 | 1280.8 ± 1 | 1283.5 ± 1
318.15 K, x2 = 0.7003 | 1207.7 ± 0.4 | 1215 ± 0.5 | 1218.3 ± 0.6 | 1221.5 ± 0.6 | 1224.8 ± 0.6 | 1227.8 ± 0.7 | 1231 ± 0.7 | 1233.9 ± 0.8 | 1236.8 ± 0.9 | 1239.5 ± 0.9
318.15 K, x2 = 0.8 | 1150.9 ± 0.4 | 1158.4 ± 0.5 | 1161.7 ± 0.5 | 1164.8 ± 0.5 | 1168.1 ± 0.6 | 1171.1 ± 0.6 | 1174.2 ± 0.6 | 1177.1 ± 0.7 | 1180.1 ± 0.7 | 1182.9 ± 0.8
318.15 K, x2 = 0.9 | 1074.5 ± 0.4 | 1082 ± 0.4 | 1085.2 ± 0.4 | 1088.4 ± 0.4 | 1091.8 ± 0.4 | 1094.8 ± 0.5 | 1098 ± 0.5 | 1100.8 ± 0.5 | 1103.7 ± 0.5 | 1106.6 ± 0.6
348.15 K, x2 = 0.1015 | 1351.4 ± 0.5 | 1358.7 ± 0.7 | 1362.3 ± 0.8 | 1366 ± 0.8 | 1369.4 ± 0.9 | 1372.6 ± 1 | 1375.9 ± 1.1 | 1378.9 ± 1.1 | 1382.1 ± 1.2 | 1384.8 ± 1.3
348.15 K, x2 = 0.201 | 1333.7 ± 0.5 | 1341.1 ± 0.7 | 1344.8 ± 0.7 | 1348.5 ± 0.8 | 1352 ± 0.9 | 1355.3 ± 1 | 1358.4 ± 1 | 1361.5 ± 1.1 | 1364.6 ± 1.2 | 1367.5 ± 1.3
348.15 K, x2 = 0.3001 | 1313 ± 0.5 | 1320.5 ± 0.6 | 1324.2 ± 0.7 | 1328 ± 0.8 | 1331.5 ± 0.8 | 1334.8 ± 0.9 | 1338.1 ± 1 | 1341.2 ± 1.1 | 1344.4 ± 1.1 | 1347.3 ± 1.2
348.15 K, x2 = 0.4102 | 1285.7 ± 0.5 | 1293.4 ± 0.6 | 1297.2 ± 0.7 | 1301 ± 0.7 | 1304.6 ± 0.8 | 1308 ± 0.9 | 1311.3 ± 0.9 | 1314.5 ± 1 | 1317.7 ± 1.1 | 1320.7 ± 1.1
348.15 K, x2 = 0.5003 | 1259.5 ± 0.5 | 1267.3 ± 0.6 | 1271 ± 0.6 | 1274.7 ± 0.7 | 1278.4 ± 0.7 | 1281.8 ± 0.8 | 1285.2 ± 0.9 | 1288.4 ± 0.9 | 1291.6 ± 1 | 1294.6 ± 1.1
348.15 K, x2 = 0.6003 | 1224.1 ± 0.5 | 1232.1 ± 0.5 | 1235.9 ± 0.6 | 1239.6 ± 0.6 | 1243.2 ± 0.7 | 1246.6 ± 0.7 | 1250.1 ± 0.8 | 1253.3 ± 0.8 | 1256.5 ± 0.9 | 1259.6 ± 1
348.15 K, x2 = 0.7003 | 1179.9 ± 0.4 | 1188.1 ± 0.5 | 1191.9 ± 0.5 | 1195.6 ± 0.6 | 1199.3 ± 0.6 | 1202.6 ± 0.6 | 1206.1 ± 0.7 | 1209.4 ± 0.7 | 1212.7 ± 0.8 | 1215.8 ± 0.8
348.15 K, x2 = 0.8 | 1122.6 ± 0.4 | 1130.9 ± 0.4 | 1134.8 ± 0.5 | 1138.7 ± 0.5 | 1142.5 ± 0.5 | 1145.9 ± 0.5 | 1149.4 ± 0.6 | 1152.8 ± 0.6 | 1156 ± 0.7 | 1159.2 ± 0.7
348.15 K, x2 = 0.9 | 1046 ± 0.4 | 1054.5 ± 0.4 | 1058.3 ± 0.4 | 1062.2 ± 0.4 | 1066 ± 0.4 | 1069.5 ± 0.4 | 1073 ± 0.4 | 1076.5 ± 0.5 | 1079.7 ± 0.5 | 1083 ± 0.5
